Results as given in US6906094B2, “1,2,4-tribsubstituted benzenes as inhibitors of 15-lipoxygenase” (Warner-Lambert Company, priority 2000, dated 2005).

Tests used:
human 15-LO = target: T1, human 15-LO (Homo sapiens, UniProt P16050); test: Human Lysate 15-LO Assay (HUM15LO); format: biochemical; conditions: recombinant human 15-LO, 174 μM linoleic acid, 15 minutes at 4° C., 13-HODE quantitated
T1 construct: made in house; host or cells: Sf9 insect cells (baculovirus, Bac-to-Bac)
T1 sequence (P16050 1-662): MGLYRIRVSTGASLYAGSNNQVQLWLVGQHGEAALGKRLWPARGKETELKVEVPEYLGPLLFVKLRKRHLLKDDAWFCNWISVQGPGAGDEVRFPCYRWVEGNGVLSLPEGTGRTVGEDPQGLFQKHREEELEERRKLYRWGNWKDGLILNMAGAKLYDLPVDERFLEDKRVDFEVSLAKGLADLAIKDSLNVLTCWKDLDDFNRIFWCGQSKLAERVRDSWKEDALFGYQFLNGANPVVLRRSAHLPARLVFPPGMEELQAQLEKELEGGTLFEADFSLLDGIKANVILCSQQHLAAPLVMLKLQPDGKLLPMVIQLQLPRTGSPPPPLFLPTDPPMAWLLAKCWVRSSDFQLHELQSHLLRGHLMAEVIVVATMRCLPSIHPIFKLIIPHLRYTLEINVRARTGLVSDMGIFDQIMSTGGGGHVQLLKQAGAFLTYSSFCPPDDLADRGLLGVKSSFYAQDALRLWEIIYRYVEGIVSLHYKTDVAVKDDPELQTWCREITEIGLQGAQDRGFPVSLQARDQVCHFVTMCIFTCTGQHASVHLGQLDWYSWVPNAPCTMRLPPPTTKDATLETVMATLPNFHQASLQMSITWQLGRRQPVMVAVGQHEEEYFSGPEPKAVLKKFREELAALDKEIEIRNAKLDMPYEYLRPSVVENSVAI
Description: In the HUM15LO assay, a test compound of the present invention was incubated with 15-LO enzyme in the presence of the linoleic acid substrate. For example, a known amount of a test compound of the present invention, 100 μL of human 15-LO, and 174 μM linoleic acid in PBS containing 0.2% sodium cholate were incubated for 15 minutes at 4° C. The reaction was stopped with 100 μL of mobile phase and 10 μL of triethyl phosphite. […] 13-HODE was quantitated by comparing peak areas of individual samples with those from a standard curve generated using authentic 13-HODE. The test reaction is compared to a control reaction, which is identical to the test reaction except no test compound of the present invention is present Percent inhibition is calculated as the amount of 13-HODE produced by the test reaction divided by the amount of 13-HODE produced by the control reaction, expressed as a percent.
Human 15-LO was generated in a recombinant 15-lipoxygenase bacculovirus expression system, using Gibco/BRL/Life Technologies' Bac-to-Bac expression reagents; T4 DNA ligase, Kanamycin, Gentamicin, tetracycline, penicillin, streptomycin, Bluo-gal, IPTG, DH10Bac competent cells, SOC, LB medium, Sf-900 II SFM media, Sf9 insect cells, Cell Fectin, and EcoRI, BamHI and KpnI restriction enzymes.

[1] = target: T2, rabbit reticulocyte 15-LO (Oryctolagus cuniculus, UniProt P12530); test: Rabbit Reticulocyte 15-LO Assay (H15LO); format: biochemical; conditions: 2 U rabbit reticulocyte 15-LO, 174 μM linoleic acid, 15 minutes at 4° C., 13-HODE quantitated
T2 construct: 15-LO is obtained from phenylhydrazine-treated rabbits and purified according to the method of Rapoport; from tissue; host or cells: reticulocytes of phenylhydrazine-treated rabbits
T2 sequence (P12530 1-663): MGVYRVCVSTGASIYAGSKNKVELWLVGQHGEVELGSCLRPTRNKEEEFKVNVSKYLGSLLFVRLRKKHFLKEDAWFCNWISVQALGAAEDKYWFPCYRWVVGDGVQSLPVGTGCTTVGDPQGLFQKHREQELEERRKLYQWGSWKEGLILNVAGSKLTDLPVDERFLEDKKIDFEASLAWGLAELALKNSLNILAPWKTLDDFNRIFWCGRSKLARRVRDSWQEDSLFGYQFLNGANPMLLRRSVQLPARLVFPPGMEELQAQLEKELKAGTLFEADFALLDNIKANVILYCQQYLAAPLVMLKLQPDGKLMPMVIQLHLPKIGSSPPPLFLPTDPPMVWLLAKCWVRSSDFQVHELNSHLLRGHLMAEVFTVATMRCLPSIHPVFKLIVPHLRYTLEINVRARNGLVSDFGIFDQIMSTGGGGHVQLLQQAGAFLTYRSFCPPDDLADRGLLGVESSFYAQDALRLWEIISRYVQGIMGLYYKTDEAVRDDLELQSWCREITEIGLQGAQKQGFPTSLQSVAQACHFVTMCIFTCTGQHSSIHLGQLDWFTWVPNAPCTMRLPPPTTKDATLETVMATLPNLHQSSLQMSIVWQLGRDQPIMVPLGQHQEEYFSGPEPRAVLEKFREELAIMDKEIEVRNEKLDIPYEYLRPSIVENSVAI
Description: In the H15LO assay, a test compound was incubated with 15-LO enzyme in the presence of the linoleic acid substrate. For example, 2 units (U) of rabbit reticulocyte 15-LO and 174 μM linoleic acid were incubated with a known amount of a test compound of the present invention for 15 minutes at 4° C. The total reaction volume was 100 μL in phosphate buffer saline (PBS) containing 0.2% sodium cholate. The reaction was stopped with 100 μL of mobile phase and […] of triethyl phosphite. […] 13-HODE was quantitated by comparing peak areas of individual samples with those from a standard curve generated using authentic 13-HODE.
15-LO is obtained from phenylhydrazine-treated rabbits and purified according to the method of Rapoport (Rapoport et al., European Journal of Biochemistry, 1979;96:545-561).

melting point [°C] | IC50 (human 15-LO) [nM] | IC50 [1] [nM] | SMILES
190 to 192 | – | – | COC(=O)COC(=O)NS(=O)(=O)Nc1cc(-c2cc3cc(F)c(F)cc3[nH]2)ccc1OC (hydrate or solvate) [Example 43, Acetic Acid, [[[[[[5-(5,6-difluoro-1H-indol-2-yl)-2-methoxyphenyl]amino]-sulfonyl]amino]carbonyl]oxy]-, Methyl ester]
158 to 160 | – | – | COc1ccc(-c2cc3cc(F)c(F)cc3[nH]2)cc1NS(=O)(=O)NC(=O)OC(C)(C)C (hydrate or solvate) [Example 53, Carbamic Acid, [[[5-(5,6-difluoro-indol-2-yl)-2-methoxyphenyl]amino]-sulfonyl]-, 1,1-dimethylethyl ester]
199 to 202 | – | – | COc1ccc(C(=O)Nc2ccc(F)c(F)c2)cc1NS(=O)(=O)NC(=O)Nc1ccc(C(C)(C)C)cc1 (hydrate or solvate) [Example 59, Benzamide, N-(3,4-difluorophenyl)-3-[[[[[[4-(1,1-dimethylethyl)phenyl]-amino]carbonyl]amino]sulfonyl]amino]-4-methoxy]
206 to 208 | – | – | COc1ccc(C(=O)Nc2ccc(F)c(F)c2)cc1NS(=O)(=O)NC(=O)Nc1cccc([N+](=O)[O-])c1 (hydrate or solvate) [Example 60, Benzamide, N-(3,4-difluorophenyl)-4-methoxy-3-[[[[[(3-nitrophenyl) -amino]carbonyl]amino]sulfonyl]amino]]
175 to 178 | – | – | COc1ccc(C(=O)Nc2ccc(F)c(F)c2)cc1NS(=O)(=O)NC(=O)Nc1cc(C(F)(F)F)cc(C(F)(F)F)c1 (hydrate or solvate) [Example 62, Benzamide, 3-[[[[[[3,5-bis(trifluoromethyl)phenyl]amino]-carbonyl]amino]-sulfonyl]amino]-N-(3,4-difluorophenyl)-4-methoxy]
188 to 190 | – | – | COc1ccc(C(=O)Nc2ccc(F)c(F)c2)cc1NS(=O)(=O)NC(=O)OCC(C)C [Example 23, Carbamic Acid, [[(5-[[(3,4-difluorophenyl)amino]carbonyl]-2-methoxyphenyl]amino]sulfonyl]-, 2-methylpropyl ester]
178 to 180 | 14 | 5 | CCCCCCCOC(=O)NS(=O)(=O)Nc1cc(-c2cc3cc(F)c(F)cc3[nH]2)ccc1OC [Example 30, Carbamic Acid, [[[5-(5,6-difluoro-IH-indo-2-yl)2-methoxyphenyl]amino]-sulfonyl]-heptyl ester]
149 to 152 | 16 | 6 | COc1ccc(-c2cc3cc(F)c(F)cc3[nH]2)cc1NS(=O)(=O)NC(=O)OC/C=C/c1ccccc1 [Example 32, Carbamic Acid, [[[5-(5,6-difluoro-IH-indol-2-yl)-2-methoxyphenyl]amino]sulfonyl]-(2E)-3-phenyl-2-propenyl ester]
159 to 163 | 13 | 7 | COc1ccc(C(=O)Nc2ccc(F)c(F)c2)cc1NS(=O)(=O)NC(=O)OC/C=C/c1ccccc1 [Example 33, Carbamic Acid, [[[5-[[(3,4-difluorophenyl)amino]carbonyl]-2-methoxyphenyl]amino]sulfonyl]-, (2E)-3-phenyl-2-propenyl ester]
177 to 180 | 13 | 12 | COc1ccc(-c2cc3cc(F)c(F)cc3[nH]2)cc1NS(=O)(=O)NC(=O)OCc1ccccc1 [Example 36, Carbamic Acid, [[[5-(5,6-difluoro-IH-indol-2-yl)-methoxyphenyl]amino]-sulfonyl]-, Phenylmethyl ester]
173 to 176 | 76 | 19 | COc1ccc(C(=O)Nc2ccc(F)c(F)c2)cc1NS(=O)(=O)NC(=O)OCc1ccccc1 [Example 42, Carbamic Acid, [[[5-[[(3,4-difluorophenyl)amino]carbonyl]-2-methoxyphenyl]amino]sulfonyl]-, Phenylmethyl Ester]
177 to 180 | 236 | – | COC(=O)COC(=O)NS(=O)(=O)Nc1cc(C(=O)Nc2ccc(F)c(F)c2)ccc1OC [Example 44, Acetic Acid, [[[[[[5-[[(3,4-difluorophenyl)amino]carbonyl]-2-methoxyphenyl]-amino]sulfonyl]amino]carbonyl]oxy]-, Methyl ester]
178 to 179 | 830 | – | COc1ccc(C(=O)Nc2ccc(F)c(F)c2)cc1NS(=O)(=O)NC(=O)OCCCO [Example 46, Carbamic Acid, [[[5-[[(3,4-difluorophenyl)amino]carbonyl]-2-methoxyphenyl]amino]sulfonyl]-, 3-hydroxypropyl ester]
179 to 182 | 306 | – | CCOCCOC(=O)NS(=O)(=O)Nc1cc(C(=O)Nc2ccc(F)c(F)c2)ccc1OC [Example 48, Carbamic Acid, [[[5[[(3,4-difluorophenyl)amino]carbonyl]-2-methoxyphenyl]amino]sulfonyl]-, 2-ethoxyethyl ester]
203 to 205 | 341 | – | COc1ccc(C(=O)Nc2ccc(F)c(F)c2)cc1NS(=O)(=O)NC(=O)OCCN1C(=O)c2ccccc2C1=O [Example 56, Carbamic Acid, [[[5-[[(3,4-difluorophenyl)amino]carbonyl]-2-methoxyphenyl]amino]sulfonyl]-, 2-(1,3-dihydro-1,3-dioxo-2H-isoindol-2-yl)ethyl ester]
193 to 194 | 751 | – | COc1ccc(C(=O)Nc2ccc(F)c(F)c2)cc1NS(=O)(=O)NC(=O)OC(C)(C)C [Example 58, Carbamic acid, [[[5-[[(3,4-difluorophenyl)amino]carbonyl]-2-methoxyphenyl]amino]sulfonyl]-, 1,1-dimethylethyl ester]
198 to 200 | 24 | – | COc1ccc(C(=O)Nc2ccc(F)c(F)c2)cc1NS(=O)(=O)NC(=O)Nc1cccc(C(F)(F)F)c1 [Example 64, Benzamide, N-(3,4-difluorophenyl)methoxy-3-[[[[[[3-(trifluoromethyl)phenyl]amino]carbonyl]amino]sulfonyl]amino]]
195 to 198 | 359 | – | COc1ccc(C(=O)Nc2ccc(F)c(F)c2)cc1NS(=O)(=O)NC(=O)Nc1ccc(Cl)cc1 [Example 68, Benzamide, 3-[[[[[(4-chlorophenyl)amino]carbonyl]amino]sulfonyl]amino]-N-(3,4-difluorophenyl)-4-methoxy]
